Experimental data: ChEMBL document CHEMBL2413072, “Synthesis and in vitro anticancer studies of novel C-2 arylidene congeners of lantadenes” (2013)

Key:
Type in all cases: functional
RXF 393 = test: Growth inhibition of human RXF393 cells assessed as cell growth at 10^-7 M by sulforhodamine B assay; settings: read-out: Activity
SF-295 = test: Growth inhibition of human SF295 cells assessed as cell growth at 10^-7 M by sulforhodamine B assay; settings: read-out: Activity
OVCAR-8 [1] = test: Growth inhibition of human OVCAR8 cells by sulforhodamine B assay
KM12 = test: Growth inhibition of human KM12 cells by sulforhodamine B assay
SNB-19 [2] = test: Growth inhibition of human SNB19 cells assessed as cell growth at 10^-6 M by sulforhodamine B assay; settings: read-out: Activity
NCI-H322M = test: Growth inhibition of human NCI-H322M cells by sulforhodamine B assay
SNB-19 [3] = test: Growth inhibition of human SNB19 cells by sulforhodamine B assay
HCT-116 = test: Growth inhibition of human HCT116 cells by sulforhodamine B assay
MDA-MB-231 [4] = test: Growth inhibition of human MDA-MB-231 cells assessed as cell growth at 10^-8 M by sulforhodamine B assay; settings: read-out: Activity
NCI-H522 = test: Growth inhibition of human NCI-H522 cells assessed as cell growth at 10^-6 M by sulforhodamine B assay; settings: read-out: Activity
OVCAR-8 [5] = test: Growth inhibition of human OVCAR8 cells assessed as cell growth at 10^-7 M by sulforhodamine B assay; settings: read-out: Activity
SN12C = test: Growth inhibition of human SN12C cells assessed as cell growth at 10^-4 M by sulforhodamine B assay; settings: read-out: Activity
MDA-MB-231 [6] = test: Growth inhibition of human MDA-MB-231 cells assessed as cell growth at 10^-4 M by sulforhodamine B assay; settings: read-out: Activity
MOLT-4 = test: Growth inhibition of human MOLT4 cells assessed as cell growth at 10^-6 M by sulforhodamine B assay; settings: read-out: Activity
Malme-3M = test: Growth inhibition of human MALME-3M cells assessed as cell growth at 10^-6 M by sulforhodamine B assay; settings: read-out: Activity
UACC-257 [7] = test: Growth inhibition of human UACC257 cells by sulforhodamine B assay
UACC-257 [8] = test: Growth inhibition of human UACC257 cells assessed as cell growth at 10^-6 M by sulforhodamine B assay; settings: read-out: Activity
SK-MEL-2 = test: Growth inhibition of human SK-MEL-2 cells assessed as cell growth at 10^-4 M by sulforhodamine B assay; settings: read-out: Activity
DU-145 = test: Growth inhibition of human DU145 cells by sulforhodamine B assay
SK-MEL-28 = test: Growth inhibition of human SK-MEL-28 cells assessed as cell growth at 10^-6 M by sulforhodamine B assay; settings: read-out: Activity
[9] = Growth inhibition of human Hs 578T cells assessed as cell growth at 10^-4 M by sulforhodamine B assay; settings: read-out: Activity
HOP-92 [10] = test: Growth inhibition of human HOP92 cells assessed as cell growth at 10^-7 M by sulforhodamine B assay; settings: read-out: Activity
PC-3 = test: Growth inhibition of human PC3 cells assessed as cell growth at 10^-4 M by sulforhodamine B assay; settings: read-out: Activity
CAKI-1 = test: Growth inhibition of human CAKI-1 cells assessed as cell growth at 10^-4 M by sulforhodamine B assay; settings: read-out: Activity
LOX IMVI = test: Growth inhibition of human LOXIMVI cells assessed as cell growth at 10^-8 M by sulforhodamine B assay; settings: read-out: Activity
OVCAR-3 = test: Growth inhibition of human OVCAR3 cells assessed as cell growth at 10^-6 M by sulforhodamine B assay; settings: read-out: Activity
HOP-92 [11] = test: Growth inhibition of human HOP92 cells assessed as cell growth at 10^-8 M by sulforhodamine B assay; settings: read-out: Activity
SK-OV-3 [12] = test: Growth inhibition of human SKOV3 cells by sulforhodamine B assay
HOP-62 = test: Growth inhibition of human HOP62 cells assessed as cell growth at 10^-4 M by sulforhodamine B assay; settings: read-out: Activity
BT-549 = test: Growth inhibition of human BT549 cells assessed as cell growth at 10^-7 M by sulforhodamine B assay; settings: read-out: Activity
A498 = test: Growth inhibition of human A498 cells by sulforhodamine B assay
OVCAR-5 = test: Growth inhibition of human OVCAR5 cells assessed as cell growth at 10^-8 M by sulforhodamine B assay; settings: read-out: Activity
[13] = Growth inhibition of human HCC2998 cells assessed as cell growth at 10^-4 M by sulforhodamine B assay; settings: HCC 2998, read-out: Activity
T47D = test: Growth inhibition of human T47D cells assessed as cell growth at 10^-4 M by sulforhodamine B assay; settings: read-out: Activity
SF-268 = test: Growth inhibition of human SF268 cells assessed as cell growth at 10^-8 M by sulforhodamine B assay; settings: read-out: Activity
SK-OV-3 [14] = test: Growth inhibition of human SKOV3 cells assessed as cell growth at 10^-7 M by sulforhodamine B assay; settings: read-out: Activity
NCI-H460 = test: Growth inhibition of human NCI-H460 cells by sulforhodamine B assay
[15] = Growth inhibition of human HCC2998 cells assessed as cell growth at 10^-7 M by sulforhodamine B assay; settings: HCC 2998, read-out: Activity
[16] = read-out: LC50 (the source's name)
[17] = read-out: pLC50 (the source's name) (converted)

SMILES: C/C=C(/C)C(=O)O[C@@H]1CC(C)(C)C[C@H]2C3=CC[C@@H]4[C@@]5(C)CCC(=O)C(C)(C)[C@@H]5CC[C@@]4(C)[C@]3(C)CC[C@@]12C(=O)O [LANTADENE A]
- growth at 0.1 µM (RXF 393): 91%
- growth at 0.1 µM (SF-295): 88%
- GI50 (OVCAR-8 [1]; read-out: GI50): 4.97 µM
- CC50 (OVCAR-8 [1]; [16]): > 100 µM
- TGI (OVCAR-8 [1]; read-out: TGI): > 100 µM
- GI50 (OVCAR-8 [1]; read-out: pGI50 (converted)): 5.01 µM
- CC50 (OVCAR-8 [1]; [17]): > 100 µM
- TGI (OVCAR-8 [1]; read-out: pTGI (converted)): > 100 µM
- GI50 (KM12; read-out: GI50): 3.52 µM
- LC50 (50% net cell kill) (KM12; read-out: LC50): > 100 µM
- TGI (KM12; read-out: TGI): > 100 µM
- GI50 (KM12; read-out: pGI50 (converted)): 3.55 µM
- LC50 (50% net cell kill) (KM12; read-out: pLC50 (converted)): > 100 µM
- TGI (KM12; read-out: pTGI (converted)): > 100 µM
- growth at 1 µM (SNB-19 [2]): 91%
- GI50 (NCI-H322M; read-out: GI50): 3.94 µM
- LC50 (50% lethal concentration) (NCI-H322M; read-out: LC50): > 100 µM
- TGI (NCI-H322M; read-out: TGI): > 100 µM
- GI50 (NCI-H322M; read-out: pGI50 (converted)): 3.98 µM
- LC50 (50% lethal concentration) (NCI-H322M; read-out: pLC50 (converted)): > 100 µM
- TGI (NCI-H322M; read-out: pTGI (converted)): > 100 µM
- GI50 (SNB-19 [3]; read-out: GI50): 4.67 µM
- CC50 (SNB-19 [3]; [16]): > 100 µM
- TGI (SNB-19 [3]; read-out: TGI): > 100 µM
- GI50 (SNB-19 [3]; read-out: pGI50 (converted)): 4.68 µM
- CC50 (SNB-19 [3]; [17]): > 100 µM
- TGI (SNB-19 [3]; read-out: pTGI (converted)): > 100 µM
- GI50 (HCT-116; read-out: GI50): 3.62 µM
- LC50 (HCT-116; read-out: LC50): > 100 µM
- TGI (HCT-116; read-out: TGI): > 100 µM
- GI50 (HCT-116; read-out: pGI50 (converted)): 3.63 µM
- LC50 (HCT-116; read-out: pLC50 (converted)): > 100 µM
- TGI (HCT-116; read-out: pTGI (converted)): > 100 µM
- growth at 0.01 µM (MDA-MB-231 [4]): 99%
- growth at 1 µM (NCI-H522): 94%
- growth at 0.1 µM (OVCAR-8 [5]): 98%
- growth at 100 µM (SN12C): 15%
- growth at 100 µM (MDA-MB-231 [6]): -26%
- growth at 1 µM (MOLT-4): 89%
- growth at 1 µM (Malme-3M): 91%
- GI50 (UACC-257 [7]; read-out: GI50): 4.81 µM
- CC50 (UACC-257 [7]; [16]): > 100 µM
- TGI (UACC-257 [7]; read-out: TGI): > 100 µM
- GI50 (UACC-257 [7]; read-out: pGI50 (converted)): 4.79 µM
- CC50 (UACC-257 [7]; [17]): > 100 µM
- TGI (UACC-257 [7]; read-out: pTGI (converted)): > 100 µM
- growth at 1 µM (UACC-257 [8]): 91%
- growth at 100 µM (SK-MEL-2): -35%
- GI50 (DU-145; read-out: GI50): 5.92 µM
- CC50 (DU-145; [16]): > 100 µM
- TGI (DU-145; read-out: TGI): > 100 µM
- GI50 (DU-145; read-out: pGI50 (converted)): 5.89 µM
- CC50 (DU-145; [17]): > 100 µM
- TGI (DU-145; read-out: pTGI (converted)): > 100 µM
- growth at 1 µM (SK-MEL-28): 95%
- growth at 100 µM [9]: 21%
- growth at 0.1 µM (HOP-92 [10]): 71%
- growth at 100 µM (PC-3): 13%
- growth at 100 µM (CAKI-1): 20%
- growth at 0.01 µM (LOX IMVI): 96%
- growth at 1 µM (OVCAR-3): 105%
- growth at 0.01 µM (HOP-92 [11]): 87%
- GI50 (SK-OV-3 [12]; read-out: GI50): 18 µM
- CC50 (SK-OV-3 [12]; [16]): > 100 µM
- TGI (SK-OV-3 [12]; read-out: TGI): > 100 µM
- GI50 (SK-OV-3 [12]; read-out: pGI50 (converted)): 18.2 µM
- CC50 (SK-OV-3 [12]; [17]): > 100 µM
- TGI (SK-OV-3 [12]; read-out: pTGI (converted)): > 100 µM
- growth at 100 µM (HOP-62): 26%
- growth at 0.1 µM (BT-549): 95%
- GI50 (A498; read-out: GI50): 2.06 µM
- CC50 (A498; [16]): > 100 µM
- TGI (A498; read-out: TGI): 11.6 µM
- GI50 (A498; read-out: pGI50 (converted)): 2.04 µM
- CC50 (A498; [17]): > 100 µM
- TGI (A498; read-out: pTGI (converted)): 11.7 µM
- growth at 0.01 µM (OVCAR-5): 101%
- growth at 100 µM [13]: 2%
- growth at 100 µM (T47D): 23%
- growth at 0.01 µM (SF-268): 100%
- growth at 0.1 µM (SK-OV-3 [14]): 114%
- GI50 (NCI-H460; read-out: GI50): 3.59 µM
- LC50 (NCI-H460; read-out: LC50): > 100 µM
- TGI (NCI-H460; read-out: TGI): > 100 µM
- GI50 (NCI-H460; read-out: pGI50 (converted)): 3.63 µM
- LC50 (NCI-H460; read-out: pLC50 (converted)): > 100 µM
- TGI (NCI-H460; read-out: pTGI (converted)): > 100 µM
- growth at 0.1 µM [15]: 108%
